Measurements from US20210395327A1, “Growth Hormone-Releasing Hormone Antagonists and Uses Thereof” (United States Government As Represented By The Department …, priority 2019, published 2021).
Non-standard residues stand in square brackets, D forms with d. Residues, ends and D or L forms follow the SMILES beside them. *: point of attachment. Phenylacetyl(2,3,4,5,6-F5) = O=C(Cc1c(F)c(F)c(F)c(F)c1F)*; Phe(F5) = N[C@@H](Cc1c(F)c(F)c(F)c(F)c1F)C(=O)O; Phe(4-Cl) = N[C@@H](Cc1ccc(Cl)cc1)C(=O)O; hArg = N=C(N)NCCCC[C@H](N)C(=O)O; 12Ado = NCCCCCCCCCCCC(=O)O; Nle = CCCC[C@H](N)C(=O)O; Orn = NCCC[C@H](N)C(=O)O; Abu = CC[C@H](N)C(=O)O; PhAc = O=C(Cc1ccccc1)*

Key:
HCC827 lung cancer cells = assay: In vitro cell viability, HCC827; type: cell-based, human; details: for In vitro relative inhibitory potency in comparison to MIA-602, HCC827: Table 3B, 5 μM for 72 H, MIA-602 = 1
In short: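 Human tumour lines were exposed to GHRH antagonist at 1, 2.5 or 5 μM for 72 h with medium refreshed every 48 h, after 24 h in low-serum (0.5% FBS) medium. Cell viability (CellTiter 96) was expressed as inhibition relative to MIA602.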

[1] = test system: GH release from rat pituitary cells; assay: Inhibition of GH release from rat pituitary cells in vitro (GH ELISA); type: cell-based; details: analogs 20 nM, then with 1 nM GHRH(1-29)NH2 for 30 minutes; Control = 1.00
Procedure: In vitro assessment of the antagonistic activity of GHRH analogs. Rats were decapitated and pituitaries were collected in pre-warmed HBSS (Hanks' Balanced Salt Solution). Tissue was then cut into small pieces and digested in HBSS medium containing 3% BSA, 50 μg/ml gentamycin and 0.5% collagenase for 50 minutes at 37° C. Cells were further dispersed by pipetting and passed through a 100 μm cell strainer with the addition of DMEM containing 50 μg/ml gentamycin. 10% horse serum and 2.5% FBS (growth medium). Cells were harvested at 475×g for 2 minutes, resuspended in fresh growth medium and seeded onto poly-D-lysine-coated 24-well plates (7 pituitaries/plate). Cells were left to recover for 4 days. Growth medium was then replaced with serum-free DMEM for 4 hours and GHRH analogs (at concentration of 20 nM) were added in DMEM containing 0.1% BSA for 30 minutes. Cells were replenished with medium containing the same concentration of the analogs and 1 nM GHRH(1-29)NH2 for 30 minutes. Medium from this step was collected, centrifuged at 800 g for 3 minutes and GH concentration was determined by ELISA (ALPCO Diagnostics, Mill Valley, Calif.) according to the manufacturer's instruction.

[2] = test system: stomach cancer N87 xenograft; assay: Xenograft tumor growth in nude mice, N87; type: in vivo; details: for % Inhibition: vs control
Procedure: The peptides' activity was compared with GHRH antagonist MIA-602. All statistical analyzses were performed from comparing GHRA antagonists to non-treated tumor (control).
Peptides and chemicals. GHRH antagonists MIA-602 and AVR-GHRH antagonists (see Table 2 above) were synthesized by solid phase methods and purified by HPLC. The peptides were dissolved in DMSO and further diluted in 10% 1,2-propanediol. The final concentration of peptides was 50 µg/ml in 10% 1,2-propanediol containing 0.1% of DMSO.
Cell culture. Human cancer cell lines including pancreatic (PANC-1 and CFPAC-1), lung (HCC827 and H460), stomach (NCI-N87), prostate (PC3), brest (MX-1 and HCC-1806), colorectal (HT-29), and ovarian (SK-OV-3 and OVCAR-3) were obtained from the American Type Culture Collection (ATCC) and cultured at 37° C. in a humidified 95% air/5% CO2 atmosphere in the medium recommended by ATCC.
Xenograft models of human cancers in nude mice. Female athymic (NCr nu/nu) nude mice, 5- to 6-weeks-old, obtained from the Envigo labs (Tampa, Fla.), were housed in laminar airflow cabinets under pathogen-free conditions with a 12-h light/12-h dark schedule, and were fed autoclaved standard chow and water. To generate mice with xenografted tumors, tumor xenografts were initiated by subcutaneous (s.c.) injection of 107 human cancer cells into female nude mice. After about 4 weeks the resulting tumors were dissected and collected after removing necrosis tissues. The tumors were then cut into particles with size of 3 mm3 and transplanted s.c. by trocar needle into experimental animals. When tumors grew to the size of 50-60 mm3 (by volume), […] of 5 μg of GHRH antagonists MIA-602 or AVR-compounds (2-10 μg as indicated), or vehicle solutions (0.1% DMSO in 10% 1,2-propanediol) respectively. Tumor sizes were measured weekly.
Statistical analysis. One-way ANOVA followed by Bonferroni comparison were performed. Data are expressed as Mean±SEM. To determine statistical significance between animal groups, two-tailed Student's t-test was conducted. Differences were considered significant when p<0.05.
Results. […] FIG. 1A-N represents in vivo inhibition of tumor growth during the treatment with GHRH antagonist MIA-602 and selected AVR antagonists in nude mice xenografted with various human tumors including pancreatic cancer PANC-1 (FIG. 1A) and CFPAC-1 (FIG. 1I); lung cancer HCC827 (FIGS. 1B, C) and H460 (FIG. 1H); stomach cancer N87 (FIGS. 1D-F); colon cancer HT-29 (FIG. 1G); breast cancer MX-1 and HCC-1806 (FIGS. 1J, K); ovarian cancer SK-OV-3 and OVACAR-3 (FIGS. 1 L, M) and prostate cancer PC3 (FIG. 1N). See also Table 5.

[3] = Table 4D, Stomach Ca N87, 10 weeks, 2 μg/day s.c.
[4] = Table 4D, Stomach Ca N87, 10 weeks, 5 μg/day s.c.
[5] = Table 4E, Stomach Ca N87, 4 weeks, 5 μg/day s.c.
[6] = Table 4F, Stomach Ca N87, 4 weeks, 5 μg/day s.c.
[7] = Table 4E, Stomach Ca N87, 4 weeks, 2 μg/day s.c.

| Structure (SMILES) | In vitro relative inhibitory potency in comparison to MIA-602, HCC827 (HCC827 lung cancer cells) | relative inhibitory potency in comparison to MIA-602, Lung IICC827 (HCC827 lung cancer cells; antagonist 5 μM for 72 h, cell proliferation assay, MIA602 = 1) | Relative GH release [1] | Tumor Size (mm^3) [2, 3] [mm^3] | % Inhibition [2, 3] [%] | Tumor Size (mm^3) [2, 4] [mm^3] | % Inhibition [2, 4] [%] | Tumor Growth % [2, 5] [%] | % Inhibition [2, 5] [%] | Tumor Growth % [2, 6] [%] | % Inhibition [2, 6] [%] | Tumor Growth % [2, 7] [%] | % Inhibition [2, 7] [%] |
| --- | --- | --- | --- | --- | --- | --- | --- | --- | --- | --- | --- | --- | --- |
| CCCC[C@H](NC(=O)[C@@H](NC(=O)[C@H](CC(=O)O)NC(=O)[C@H](CCC(N)=O)NC(=O)[C@H](CC(C)C)NC(=O)[C@H](CC(C)C)NC(=O)[C@H](CCCN)NC(=O)[C@H](Cc1c[nH]cn1)NC(=O)[C@H](C)NC(=O)[C@H](CO)NC(=O)[C@H](CC(C)C)NC(=O)[C@H](CCC(N)=O)NC(=O)[C@H](CC)NC(=O)[C@H](CC(C)C)NC(=O)[C@@H](NC(=O)[C@H](CCCN)NC(=O)[C@H](Cc1c[nH]cn1)NC(=O)[C@H](Cc1ccc(OC)cc1)NC(=O)[C@H](CCCCNC(=N)N)NC(=O)[C@H](C)NC(=O)[C@@H](NC(=O)[C@H](Cc1c(F)c(F)c(F)c(F)c1F)NC(=O)[C@@H](NC(=O)[C@H](C)NC(=O)[C@H](CC(=O)O)NC(=O)[C@@H](CCCNC(=N)N)NC(=O)[C@H](Cc1ccc(O)cc1)NC(=O)CCCCCCCCCCCNC(=O)Cc1ccccc1)[C@@H](C)CC)[C@@H](C)O)C(C)C)[C@@H](C)CC)C(=O)N[C@H](CCCNC(=N)N)C(=O)N[C@@H](CCCCNC(=N)N)C(N)=O [MIA-602, PhAC-Ada, Tyr D-Arg, Asp, Ala, Ile, 5FPhe, Thr, Ala, Har, Tyr(Me), His, Orn, Val, Leu, Abu, Gin, Leu, Ser, Ala, His, Om, Leu, Leu, Gin, Asp, Ile; Nle, D-Arg, Har NH2, reference compound] ({PhAc-12Ado}-Y[dR]DAI[Phe(F5)]TA[hArg]Y(Me)H[Orn]VL[Abu]QLSAH[Orn]LLQDI[Nle][dR][hArg]-NH2) | 1 | 1 | 0.78 ± 0.01 | 1065.00 | 13.0 | 767.00 | 37.3 | 427.20 | 52.1 | 427.20 | 52.1 | – | – |
| CCCC[C@H](NC(=O)[C@@H](NC(=O)[C@H](CC(=O)O)NC(=O)[C@H](CCC(N)=O)NC(=O)[C@H](CC(C)C)NC(=O)[C@H](CC(C)C)NC(=O)[C@H](CCCN)NC(=O)[C@H](Cc1c[nH]cn1)NC(=O)[C@H](C)NC(=O)[C@H](CO)NC(=O)[C@H](CC(C)C)NC(=O)[C@H](CCC(N)=O)NC(=O)[C@H](CC)NC(=O)[C@H](CC(C)C)NC(=O)[C@@H](NC(=O)[C@H](CCCN)NC(=O)[C@H](Cc1c[nH]cn1)NC(=O)[C@H](Cc1ccc(OC)cc1)NC(=O)[C@H](CCCCNC(=N)N)NC(=O)[C@H](C)NC(=O)[C@@H](NC(=O)[C@H](Cc1c(F)c(F)c(F)c(F)c1F)NC(=O)[C@@H](NC(=O)[C@H](C)NC(=O)[C@H](CC(=O)O)NC(=O)[C@@H](CCCNC(=N)N)NC(=O)[C@H](Cc1ccc(O)cc1)NC(=O)CCCCCCCCCCCNC(=O)Cc1c(F)c(F)c(F)c(F)c1F)[C@@H](C)CC)[C@@H](C)O)C(C)C)[C@@H](C)CC)C(=O)N[C@H](CCCNC(=N)N)C(=O)N[C@@H](CCCCNC(=N)N)C(=O)NCCCCCCCCCCCC(N)=O [AVR-553, 5FPhAC-Ada-Tyr-DArg-Asp-Ala-Ile-5FPhe-Thr-Ala-Har-Tyr(Me)-His-Orn-Val-Leu-Abu-Gln-Leu-Ser-Ala-His-Orn-Leu-Leu-Gln-Asp-Ile-Nle-DArg-Har-Ada-NH2] ({Phenylacetyl(2,3,4,5,6-F5)-12Ado}-Y[dR]DAI[Phe(F5)]TA[hArg]Y(Me)H[Orn]VL[Abu]QLSAH[Orn]LLQDI[Nle][dR][hArg][12Ado]-NH2) | 2.582 | – | 0.82 ± 0.04 | – | – | – | – | 283.3 | 68.3 | – | – | 532.7 | 40.3 |
| CCCC[C@H](NC(=O)[C@@H](NC(=O)[C@H](CC(=O)O)NC(=O)[C@H](CCC(N)=O)NC(=O)[C@H](CC(C)C)NC(=O)[C@H](CC(C)C)NC(=O)[C@H](CCCCN)NC(=O)[C@H](CCCNC(=N)N)NC(=O)[C@H](C)NC(=O)[C@H](CO)NC(=O)[C@H](CC(C)C)NC(=O)[C@H](CCC(N)=O)NC(=O)[C@H](CC)NC(=O)[C@H](CC(C)C)NC(=O)[C@@H](NC(=O)[C@H](CCCCN)NC(=O)[C@H](CCCNC(=N)N)NC(=O)[C@H](Cc1ccc(OC)cc1)NC(=O)[C@H](CCCCNC(=N)N)NC(=O)[C@H](CC(N)=O)NC(=O)[C@@H](NC(=O)[C@H](Cc1ccc(Cl)cc1)NC(=O)[C@@H](NC(=O)[C@H](C)NC(=O)[C@H](CC(=O)O)NC(=O)[C@@H](CCCNC(=N)N)NC(=O)[C@H](Cc1ccc(O)cc1)NC(=O)CCCCCCCCCCCNC(=O)Cc1c(F)c(F)c(F)c(F)c1F)[C@@H](C)CC)[C@@H](C)O)C(C)C)[C@@H](C)CC)C(=O)N[C@H](CCCNC(=N)N)C(=O)N[C@@H](CCCCNC(=N)N)C(=O)NCCCCCCCCCCCC(N)=O [AVR-333, 5FPhAC-Ada-Tyr-DArg-Asp-Ala-Ile-Cpa-Thr-Asn-Har-Tyr(Me)-Arg-Lys-Val-Leu-Abu-Gln-Leu-Ser-Ala-Arg-Lys-Leu-Leu-Gln-Asp-Ile-Nle-DArg-Har-Ada-NH2] ({Phenylacetyl(2,3,4,5,6-F5)-12Ado}-Y[dR]DAI[Phe(4-Cl)]TN[hArg]Y(Me)RKVL[Abu]QLSARKLLQDI[Nle][dR][hArg][12Ado]-NH2) | 1.177 | – | 0.88 ± 0.03 | 454.00 | 62.9 | – | – | – | – | – | – | – | – |
